Assay results taken from PMC5218480 (PLoS ONE, 2017).

Test system: MV-4-11 cells
Assay: Gene expression microarray analysis (Affymetrix PrimeView) and GSEA
Type: cell-based, human
Design: RFU PODN (11730768_x_at) / Fold change /veh PODN (11730768_x_at) / RFU LINC00158 (11744669_a_at) / Fold change /veh LINC00158 (11744669_a_at) / RFU DUSP10 (11751237_a_at) / Fold change /veh DUSP10 (11751237_a_at) / RFU ID3 (11757404_x_at) / Fold change /veh ID3 (11757404_x_at) / RFU PLEKHG5 (11737974_s_at) / Fold change /veh PLEKHG5 (11737974_s_at) / RFU LRRC4B (11730491_at) / Fold change /veh LRRC4B (11730491_at) / RFU GIMAP4 (11747438_a_at) / Fold change /veh GIMAP4 (11747438_a_at) / RFU KRT8 (11758183_x_at) / Fold change /veh KRT8 (11758183_x_at) / RFU CNN1 (11734310_a_at) / Fold change /veh CNN1 (11734310_a_at) / RFU VPS37D (11726825_at) / Fold change /veh VPS37D (11726825_at) / RFU C10orf10 (11716522_x_at) / Fold change /veh C10orf10 (11716522_x_at) / RFU KIR2DL2 /// KIR2DL4 /// KIR2DL5A /// KIR2DL5B /// KIR2DS1 /// KIR2DS2 /// KIR2DS3 /// KIR2DS4 /// KIR3DL3 /// KIR3DL3 /// KIR3DS1 (11738374_at) / Fold change /veh KIR2DL2 /// KIR2DL4 /// KIR2DL5A /// KIR2DL5B /// KIR2DS1 /// KIR2DS2 /// KIR2DS3 /// KIR2DS4 /// KIR3DL3 /// KIR3DL3 /// KIR3DS1 (11738374_at) / RFU C1QL1 (11718748_at) / Fold change /veh C1QL1 (11718748_at) / RFU TMPRSS4 (11747572_a_at) / Fold change /veh TMPRSS4 (11747572_a_at) / RFU HAMP (11756126_x_at) / Fold change /veh HAMP (11756126_x_at) / RFU RNFT2 (11725882_a_at) / Fold change /veh RNFT2 (11725882_a_at) / RFU NR4A2 (11747474_a_at) / Fold change /veh NR4A2 (11747474_a_at) / RFU ABCC12 (11746883_a_at) / Fold change /veh ABCC12 (11746883_a_at) / RFU TMEM136 (11760407_x_at) / Fold change /veh TMEM136 (11760407_x_at) / RFU CLDN22 /// WWC2 (11732394_at) / Fold change /veh CLDN22 /// WWC2 (11732394_at) / RFU HLA-DPB1 (11760878_x_at) / Fold change /veh HLA-DPB1 (11760878_x_at) / RFU SPINT1 (11716480_a_at) / Fold change /veh SPINT1 (11716480_a_at) / RFU GAP43 (11754022_s_at) / Fold change /veh GAP43 (11754022_s_at) / RFU A4GNT (11735810_at) / Fold change /veh A4GNT (11735810_at) / RFU PRB3 (11715151_x_at) / Fold change /veh PRB3 (11715151_x_at) / RFU TUBB4B (11761932_at) / Fold change /veh TUBB4B (11761932_at) / RFU CAPN14 (11732068_a_at) / Fold change /veh CAPN14 (11732068_a_at) / RFU TMCC2 (11721928_a_at) / Fold change /veh TMCC2 (11721928_a_at) / RFU IRGQ (11745062_a_at) / Fold change /veh IRGQ (11745062_a_at) / RFU FAM174B (11720279_a_at) / Fold change /veh FAM174B (11720279_a_at) / RFU TMPRSS4 (11748680_a_at) / Fold change /veh TMPRSS4 (11748680_a_at) / RFU FAM212B (11763350_a_at) / Fold change /veh FAM212B (11763350_a_at) / RFU PLEKHG5 (11743358_a_at) / Fold change /veh PLEKHG5 (11743358_a_at) / RFU ZSCAN30 (11745921_a_at) / Fold change /veh ZSCAN30 (11745921_a_at) / RFU CMKLR1 (11741424_a_at) / Fold change /veh CMKLR1 (11741424_a_at) / RFU LOC101060620 /// MAPK8IP1 (11723275_at) / Fold change /veh LOC101060620 /// MAPK8IP1 (11723275_at) / RFU SPTSSB (11747773_x_at) / Fold change /veh SPTSSB (11747773_x_at) / RFU PRSS12 (11739890_at) / Fold change /veh PRSS12 (11739890_at) / RFU BIN1 (11741810_x_at) / Fold change /veh BIN1 (11741810_x_at) / RFU WNT11 (11732464_a_at) / Fold change /veh WNT11 (11732464_a_at) / RFU C10orf10 (11716521_a_at) / Fold change /veh C10orf10 (11716521_a_at) / RFU C5orf56 (11738089_at) / Fold change /veh C5orf56 (11738089_at) / RFU CYB561 (11721691_x_at) / Fold change /veh CYB561 (11721691_x_at) / RFU ANKRD19P (11752326_a_at) / Fold change /veh ANKRD19P (11752326_a_at) / RFU OR2T12 /// OR2T33 /// OR2T8 (11738714_s_at) / Fold change /veh OR2T12 /// OR2T33 /// OR2T8 (11738714_s_at) / RFU VCAN (11748164_a_at) / Fold change /veh VCAN (11748164_a_at) / RFU JSRP1 (11732532_at) / Fold change /veh JSRP1 (11732532_at) / RFU KRTAP10-11 (11738290_x_at) / Fold change /veh KRTAP10-11 (11738290_x_at) / RFU MYO3A (11730013_a_at) / Fold change /veh MYO3A (11730013_a_at) / RFU EBF3 (11725865_a_at) / Fold change /veh EBF3 (11725865_a_at) / RFU CAMK2N1 (11719241_x_at) / Fold change /veh CAMK2N1 (11719241_x_at) / RFU C5orf56 (11738088_a_at) / Fold change /veh C5orf56 (11738088_a_at) / RFU OLFML3 (11715873_a_at) / Fold change /veh OLFML3 (11715873_a_at) / RFU LOC100653217 /// NTM (11731650_a_at) / Fold change /veh LOC100653217 /// NTM (11731650_a_at) / RFU MAPK11 (11762145_a_at) / Fold change /veh MAPK11 (11762145_a_at) / RFU FIZ1 (11724087_x_at) / Fold change /veh FIZ1 (11724087_x_at) / RFU OASL (11726364_x_at) / Fold change /veh OASL (11726364_x_at) / RFU SOX15 (11748057_x_at) / Fold change /veh SOX15 (11748057_x_at) / RFU CD79A (11719716_a_at) / Fold change /veh CD79A (11719716_a_at) / RFU HIST1H1D (11736915_at) / Fold change /veh HIST1H1D (11736915_at) / RFU CASKIN2 (11723855_a_at) / Fold change /veh CASKIN2 (11723855_a_at) / RFU LOC730098 (11760151_x_at) / Fold change /veh LOC730098 (11760151_x_at) / RFU OR4N2 (11742367_at) / Fold change /veh OR4N2 (11742367_at) / RFU PRRT2 (11749266_a_at) / Fold change /veh PRRT2 (11749266_a_at) / RFU SNX32 (11753110_a_at) / Fold change /veh SNX32 (11753110_a_at) / RFU CDHR5 (11726645_a_at) / Fold change /veh CDHR5 (11726645_a_at) / RFU RCAN1 (11760418_a_at) / Fold change /veh RCAN1 (11760418_a_at) / RFU FAM167A (11723789_a_at) / Fold change /veh FAM167A (11723789_a_at) / RFU FAM26E (11764081_at) / Fold change /veh FAM26E (11764081_at) / RFU ISYNA1 (11749810_s_at) / Fold change /veh ISYNA1 (11749810_s_at) / RFU ACY1 (11761880_at) / Fold change /veh ACY1 (11761880_at) / RFU 11764098_at / Fold change /veh 11764098_at / RFU SAMD14 (11745864_x_at) / Fold change /veh SAMD14 (11745864_x_at) / RFU NPB (11741838_a_at) / Fold change /veh NPB (11741838_a_at) / RFU TMPRSS6 (11731388_a_at) / Fold change /veh TMPRSS6 (11731388_a_at) / RFU KRTAP10-2 (11738614_at) / Fold change /veh KRTAP10-2 (11738614_at) / RFU ARHGAP8 /// PRR5-ARHGAP8 (11727945_x_at) / Fold change /veh ARHGAP8 /// PRR5-ARHGAP8 (11727945_x_at) / RFU KRTAP5-7 /// NADSYN1 (11734609_at) / Fold change /veh KRTAP5-7 /// NADSYN1 (11734609_at) / RFU RASL12 (11751679_a_at) / Fold change /veh RASL12 (11751679_a_at) / RFU CDKN2B (11736163_a_at) / Fold change /veh CDKN2B (11736163_a_at) / RFU PRF1 (11729649_at) / Fold change /veh PRF1 (11729649_at) / RFU, ZNF638 /// ZNF638-IT1 / Fold change vs veh, ZNF638 /// ZNF638-IT1 / RFU, PANK3 / Fold change vs veh, PANK3 / RFU, SH3YL1 / Fold change vs veh, SH3YL1 / RFU, ZEB2 / Fold change vs veh, ZEB2 / RFU, NRIP1 / Fold change vs veh, NRIP1 / RFU, PTTG1IP / Fold change vs veh, PTTG1IP / RFU, CAPN2 / Fold change vs veh, CAPN2 / RFU, MED14 / Fold change vs veh, MED14 / RFU, SNORA58 / Fold change vs veh, SNORA58 / RFU, C1orf63 / Fold change vs veh, C1orf63 / RFU, LRRFIP1 / Fold change vs veh, LRRFIP1 / RFU, NDUFAF7 / Fold change vs veh, NDUFAF7 / RFU, SLC12A2 / Fold change vs veh, SLC12A2 / RFU, IBTK / Fold change vs veh, IBTK / RFU, ESF1 / Fold change vs veh, ESF1 / Fold change vs veh, TMEM50B / RFU, TAOK1 / Fold change vs veh, TAOK1 / RFU, ACBD3 / Fold change vs veh, ACBD3 / RFU, TMA16 / Fold change vs veh, TMA16 / RFU, RWDD3 / Fold change vs veh, RWDD3 / RFU, BCAT1 / Fold change vs veh, BCAT1 / RFU, EDEM3 / Fold change vs veh, EDEM3 / RFU, TMEM33 / Fold change vs veh, TMEM33 / RFU, WDR75 / Fold change vs veh, WDR75 / RFU, AHCTF1 / Fold change vs veh, AHCTF1 / RFU, TFRC / Fold change vs veh, TFRC / RFU, ZDHHC17 / Fold change vs veh, ZDHHC17 / RFU, NOM1 / Fold change vs veh, NOM1 / RFU, ARL8B / Fold change vs veh, ARL8B / RFU, ZBTB11 / Fold change vs veh, ZBTB11 / RFU, TAMM41 / Fold change vs veh, TAMM41 / RFU, KIAA1704 /// LOC100996395 / Fold change vs veh, KIAA1704 /// LOC100996395 / RFU, ING1 / Fold change vs veh, ING1 / RFU, TRMT61B / Fold change vs veh, TRMT61B / RFU, FUBP3 / Fold change vs veh, FUBP3 / RFU, TP53 / Fold change vs veh, TP53 / RFU, TNKS2 / Fold change vs veh, TNKS2 / RFU, ZFP14 / Fold change vs veh, ZFP14 / RFU, ACTR2 / Fold change vs veh, ACTR2 / RFU, PPP3R1 / Fold change vs veh, PPP3R1 / RFU, PIK3R1 / Fold change vs veh, PIK3R1 / RFU, HNRNPA1 / Fold change vs veh, HNRNPA1 / RFU, RNF170 / Fold change vs veh, RNF170 / RFU, ZNF28 / Fold change vs veh, ZNF28 / RFU, RNGTT / Fold change vs veh, RNGTT / RFU, OGT / Fold change vs veh, OGT / RFU, BRD1 / Fold change vs veh, BRD1 / RFU, MARS / Fold change vs veh, MARS / RFU, ZNF655 / Fold change vs veh, ZNF655 / RFU, FAHD1 / Fold change vs veh, FAHD1 / RFU, BDP1 / Fold change vs veh, BDP1 / RFU, LRRCC1 / Fold change vs veh, LRRCC1 / RFU, ARID1A / Fold change vs veh, ARID1A / RFU, ZNF146 / Fold change vs veh, ZNF146 / RFU, ZNF330 / Fold change vs veh, ZNF330 / RFU, GPN3 / Fold change vs veh, GPN3 / RFU, C9orf123 / Fold change vs veh, C9orf123 / RFU, N4BP2L2 / Fold change vs veh, N4BP2L2 / RFU, ARFIP1 / Fold change vs veh, ARFIP1 / RFU, FAM179B / Fold change vs veh, FAM179B / RFU, BCL10 / Fold change vs veh, BCL10 / RFU, UHRF1BP1L / Fold change vs veh, UHRF1BP1L / RFU, BET1 / Fold change vs veh, BET1 / RFU, CNOT2 / Fold change vs veh, CNOT2 / RFU, ZNF268 / Fold change vs veh, ZNF268 / Fold change vs veh, ZNF507 / RFU, DGCR2 / Fold change vs veh, DGCR2 / RFU, WDSUB1 / Fold change vs veh, WDSUB1 / Fold change vs veh, HSP90B1 /// MIR3652 / RFU, ADSS / Fold change vs veh, ADSS / RFU, GK / Fold change vs veh, GK / RFU, ZNF148 / Fold change vs veh, ZNF148 / RFU, TAF9 / Fold change vs veh, TAF9 / RFU, SLC1A5 / Fold change vs veh, SLC1A5 / RFU, SLMO2 / Fold change vs veh, SLMO2 / RFU, ABCC4 / Fold change vs veh, ABCC4 / RFU, LOC101060439 /// RAP1B / Fold change vs veh, LOC101060439 /// RAP1B / RFU, RFX7 / Fold change vs veh, RFX7 / RFU, GTPBP10 / Fold change vs veh, GTPBP10 / RFU, CNEP1R1 / Fold change vs veh, CNEP1R1 / RFU, BIVM-ERCC5 /// ERCC5 / Fold change vs veh, BIVM-ERCC5 /// ERCC5 / RFU, ILF3 / Fold change vs veh, ILF3 / RFU 11762660_at / Fold change /veh 11762660_at / RFU VCAN (11757783_s_at) / Fold change /veh VCAN (11757783_s_at) / RFU DDX43 (11728927_at) / Fold change /veh DDX43 (11728927_at) / RFU KRT8 (11758188_x_at) / Fold change /veh KRT8 (11758188_x_at) / RFU NKD1 (11759106_at) / Fold change /veh NKD1 (11759106_at) / RFU SRD5A1 (11742802_a_at) / Fold change /veh SRD5A1 (11742802_a_at) / RFU TPSAB1 /// TPSB2 (11721975_s_at) / Fold change /veh TPSAB1 /// TPSB2 (11721975_s_at) / RFU GSTM3 (11746129_a_at) / Fold change /veh GSTM3 (11746129_a_at) / RFU IL23R (11737362_x_at) / Fold change /veh IL23R (11737362_x_at) / RFU TMEM51 (11727254_a_at) / Fold change /veh TMEM51 (11727254_a_at) / RFU PIWIL2 (11732686_x_at) / Fold change /veh PIWIL2 (11732686_x_at) / RFU ORM1 (11744905_x_at) / Fold change /veh ORM1 (11744905_x_at) / RFU CCDC152 (11743942_at) / Fold change /veh CCDC152 (11743942_at) / RFU ECM1 (11717891_a_at) / Fold change /veh ECM1 (11717891_a_at) / RFU IL23R (11748794_a_at) / Fold change /veh IL23R (11748794_a_at) / RFU TNFAIP8L3 (11732012_x_at) / Fold change /veh TNFAIP8L3 (11732012_x_at) / RFU MBOAT4 (11741988_at) / Fold change /veh MBOAT4 (11741988_at) / RFU 11764193_at / Fold change /veh 11764193_at / RFU TMEM53 (11763286_at) / Fold change /veh TMEM53 (11763286_at) / RFU MAGEB2 (11727129_at) / Fold change /veh MAGEB2 (11727129_at) / RFU TMEM200A (11744735_a_at) / Fold change /veh TMEM200A (11744735_a_at) / RFU CCDC152 (11751479_a_at) / Fold change /veh CCDC152 (11751479_a_at) / RFU FAM211A (11726209_a_at) / Fold change /veh FAM211A (11726209_a_at) / RFU RGS16 (11746705_a_at) / Fold change /veh RGS16 (11746705_a_at) / RFU VCAN (11755009_s_at) / Fold change /veh VCAN (11755009_s_at) / RFU RHOB (11743442_s_at) / Fold change /veh RHOB (11743442_s_at) / RFU RGS16 (11720943_a_at) / Fold change /veh RGS16 (11720943_a_at) / RFU RGS16 (11720944_at) / Fold change /veh RGS16 (11720944_at) / RFU, VPS4B / Fold change vs veh, VPS4B / RFU, CREB1 / Fold change vs veh, CREB1 / RFU, DNAJC13 / Fold change vs veh, DNAJC13 / RFU, GNAQ / Fold change vs veh, GNAQ / RFU, CDK5R1 / Fold change vs veh, CDK5R1 / RFU, ZRANB3 / Fold change vs veh, ZRANB3 / RFU, CUL4A / Fold change vs veh, CUL4A / RFU, CCNY / Fold change vs veh, CCNY / RFU, UFL1 / Fold change vs veh, UFL1 / RFU, COG3 / Fold change vs veh, COG3 / RFU, DIAPH2 / Fold change vs veh, DIAPH2 / RFU, SKA2 / Fold change vs veh, SKA2 / RFU, AFF3 / Fold change vs veh, AFF3 / RFU, LMF1 / Fold change vs veh, LMF1 / RFU, IPO11 / Fold change vs veh, IPO11 / RFU, DFFB / Fold change vs veh, DFFB / RFU, FOXP1 / Fold change vs veh, FOXP1 / RFU, CARD8 / Fold change vs veh, CARD8 / RFU, STRN3 / Fold change vs veh, STRN3 / RFU, ADK / Fold change vs veh, ADK / RFU, RASSF2 / Fold change vs veh, RASSF2 / RFU, WIPF1 / Fold change vs veh, WIPF1 / RFU, LARP1B / Fold change vs veh, LARP1B / RFU, RASA1 / Fold change vs veh, RASA1 / RFU, RB1 / Fold change vs veh, RB1 / RFU, PPFIA1 / Fold change vs veh, PPFIA1 / RFU, MAT2A / Fold change vs veh, MAT2A / RFU, CCT5 / Fold change vs veh, CCT5 / RFU, WDR92 / Fold change vs veh, WDR92 / RFU, CUX1 / Fold change vs veh, CUX1 / RFU, TTC7A / Fold change vs veh, TTC7A / RFU, TMEM135 / Fold change vs veh, TMEM135 / RFU, DEPTOR / Fold change vs veh, DEPTOR / RFU, CPM / Fold change vs veh, CPM / RFU, DNAJB6 / Fold change vs veh, DNAJB6 / RFU, CACNA2D3 / Fold change vs veh, CACNA2D3 / RFU, DTX4 / Fold change vs veh, DTX4 / RFU, TFCP2 / Fold change vs veh, TFCP2 / RFU, GMCL1 /// GMCL1P1 / Fold change vs veh, GMCL1 /// GMCL1P1 / RFU, AEBP2 / Fold change vs veh, AEBP2 / RFU, SNHG1 /// SNORD22 /// SNORD25 /// SNORD26 /// SNORD27 /// SNORD28 /// SNORD29 /// SNORD31 / Fold change vs veh, SNHG1 /// SNORD22 /// SNORD25 /// SNORD26 /// SNORD27 /// SNORD28 /// SNORD29 /// SNORD31 / Fold change (Aza/veh), C12orf56 (ProbeSet 11735607_a_at) / Fold change (ACY-1035/veh), C12orf56 (ProbeSet 11735607_a_at) / Fold change (Aza/veh), FGFR1OP (ProbeSet 11751329_s_at) / Fold change (ACY-1035/veh), FGFR1OP (ProbeSet 11751329_s_at) / Fold change (Aza/veh), VPS36 (ProbeSet 11739960_a_at) / Fold change (ACY-1035/veh), VPS36 (ProbeSet 11739960_a_at) / RFU SYPL1 (11715823_x_at) / Fold change /veh SYPL1 (11715823_x_at) / RFU IGFBP7 (11715501_s_at) / Fold change /veh IGFBP7 (11715501_s_at) / RFU REEP3 (11722064_at) / Fold change /veh REEP3 (11722064_at) / RFU IGLL1 (11728026_x_at) / Fold change /veh IGLL1 (11728026_x_at): dose or concentration left out as unconfirmed
Details: ProbeSet 11762504_a_at; LIST D

## Nc1ncn([C@@H]2O[C@H](CO)[C@@H](O)[C@H]2O)c(=O)n1 [azacitidine]
  RFU, ZRANB3: 79.10 RFU
